System: mPTP
Test: mPTP activity (Ca2+ retention) assay in isolated rat liver mitochondria
Type: biochemical
Conditions: examples tested by different contract research organisations, believed comparable
Source text: Pharmacological inhibition or modulation of the mPTP can be measured in well characterised ‘Ca^2+ retention’ assays performed in isolated mitochondria. In vitro, isolated mitochondria rapidly sequester exogenous Ca^2+ until the intramitochondrial Ca^2+ concentration reaches the threshold for mPTP activation. Once the pore is activated, mitochondrial integrity is compromised and the stored Ca^2+ is released. The distribution of Ca^2+ between extra- and intra-mitochondrial compartments can be measured in real time with the use of membrane-impermeant Ca^2+ sensitive fluorescent dyes. Depending on the configuration of the assay, inhibition or modulation of the mPTP either delays the opening of the pore or increases the concentration of Ca^2+ required to induce mPTP opening.
MPTP activity was measured in mitochondria freshly isolated from female Sprague Dawley (250 to 300 gram) rat livers using the following method. Cervical dislocation was performed on the rat. The liver was then perfused in-situ with −40 ml cold Dulbecco's Phosphate Buffered Saline (DPBS) prior to dissection and transferred into 30 ml Isolation Buffer (250 mM Sucrose, 10 mM KCl, 1 mM EGTA, 1 mM EDTA, 25 mM HEPES, adjusted to pH 7.5 with 1M NaOH). Each lobe of the liver was then removed from the buffer, minced using tweezers and a scalpel into −5 mm pieces then transferred into a 50 ml Potterton dounce homogenization tube on ice containing 30 ml ice-cold centrifugation buffer (300 mM Trehalose, 25 mM HEPES, 1 mM EGTA, 1 mM EDTA, 10 mM KCl, adjusted to pH 7.5 with 1M NaOH and supplemented with 0.1% bovine serum albumin (BSA) and complete protease inhibitor cocktail (one tablet of inhibitor per 50 mls of buffer). Homogenisation was carried out using a teflon pestle at 1800 rpm. The slurry was centrifuged at 800 g for 10 min at 4° C., then the supernatant centrifuged at 10,000 g for 10 min. The pellet was washed once with FLIPR assay buffer (75 mM Mannitol, 25 mM Sucrose, 5 mM Potassium Phosphate Monobasic, 20 mM Tris base, 100 mM KCl, 0.1% BSA adjusted to pH 7.4 with 5M HCl) centrifuged again, then resuspended in FLIPR assay buffer to a concentration of 8.8 mg/ml protein.
Tested compounds (10 mM stock in DMSO) were serially diluted in DMSO in half log steps to generate 10 test concentrations (final concentrations in assay 30 μM to 1 nM). An intermediate dilution of 5 μl DMSO samples into 247 μl FLIPR assay buffer was carried out prior to transfer of 5 μl into duplicate wells of a 384 well polypropylene assay plate. Control wells were 0.5% (v/v) DMSO and 5 μM cyclosporin A.
A stock mitochondria/Fluo5N assay solution was prepared in 5.6 ml FLIPR assay buffer (at RT) supplemented with succinate disodium salt (10 mM), rotenone (1 μM), Fluo5N pentapotassium salt (2 μM) and 1 ml mitochondria suspension, then transferred (15 μl) into the assay plate containing test compounds and incubated for 10 min at RT. Assay plates were processed for fluorescence detection on either a FLIPR Tetra (Molecular Devices) or CLARIOstar (BMG) plate reader. For kinetic fluorescence detection on the FLIPR, dye fluorescence was measured every 3 sec for a total of 10 min. After 12 sec, a 2.5 μl bolus of CaCl2 (75 μM) was added from a source plate containing 675 μM CaCl2 in FLIPR assay buffer. Alternatively, the 2.5 μl addition of CaCl2 was performed using a Viaflow 384, plates were incubated at RT for 10 min, and dye fluorescence measured after 10 min on the CLARIOstar plate reader. pIC50 values for tested compounds were calculated using the fluorescence value collected at the 10 min timepoint on either plate reader, with % inhibition calculated using the DMSO control and cyclosporin A values as 0 and 100% respectively.

For `O=C(NC[C@H](Cc1ccc(F)cc1F)C1CC1)c1cnc(=O)[nH]c1` [Example 147], the “mPTP Rat liver pIC50” value was less than 4.57.
`O=C(NCC1(Cc2cc(F)cc(F)c2)CCC1)c1cncc(=O)[nH]1` [Example 165] was tested, and the “mPTP Rat liver pIC50” value was less than 4.57.
In the case of `O=C(NCC1(Cc2cccc(F)c2)CCC1)c1cnn[nH]1` [Example 167], the “mPTP Rat liver pIC50” value is reported as less than 4.57.
In the case of `CCC(Cc1ccc(F)cc1F)CN(C)C(=O)c1nccc(=O)[nH]1` (centres unmarked) [Example 169], the “mPTP Rat liver pIC50” value is reported as less than 4.57.
With `Cn1c(C(=O)NCC2(Cc3ccc(F)cc3F)CCC2)n[nH]c1=O` [Example 173, N-((1-(2,4-difluorobenzyl)cyclobutyl)methyl)-4-methyl-5-oxo-4,5-dihydro-1H-1,2,4-triazole-3-carboxamide] the “mPTP Rat liver pIC50” value was less than 4.57.
For `COCc1ccccc1CC1(CNC(=O)c2nn(C)c(=O)[nH]2)CCC1` [Example 178], the “mPTP Rat liver pIC50” value was less than 4.57.
`CCC(Cc1ccc(F)cc1F)CN(C)C(=O)c1nn(C)c(=O)[nH]1` (centres unmarked) [Example 179, N-(2-(2,4-difluorobenzyl)butyl)-N,1-dimethyl-5-oxo-4,5-dihydro-1H-1,2,4-triazole-3-carboxamide] was tested, and the “mPTP Rat liver pIC50” value was less than 4.57.
With `Cn1nc(C(=O)NCC2(Cc3ccc(F)cc3F)CCC(F)(F)CC2)[nH]c1=O` [Example 197] the “mPTP Rat liver pIC50” value was less than 4.57.
For `Cc1cc(=O)[nH]c(C(=O)NCC2(Cc3ccc(F)cc3F)CCC2)n1` [Example 200], the “mPTP Rat liver pIC50” value was less than 4.57.
With `O=C(NCC1(Cc2ccc(F)cc2F)CCC1)c1cc(=O)[nH]s1` [Example 201] the “mPTP Rat liver pIC50” value was less than 4.57.
In the case of `Cn1nc(C(=O)NCC2(Cc3ccc(F)cc3F)CCC2)nc1CO` [Example 208], the “mPTP Rat liver pIC50” value is reported as less than 4.57.
With `O=C(NCC1(Cc2ccc(F)cc2F)CCC1)c1cnc[nH]c1=O` [Example 213, N-((1-(2,4-difluorobenzyl)cyclobutyl)methyl)-6-oxo-1,6-dihydropyrimidine-5-carboxamide] the “mPTP Rat liver pIC50” value was less than 4.57.
In the case of `O=C(NCC(Cc1ccc(F)cc1Cl)C1CC1)c1nccc(=O)[nH]1` (centres unmarked) [Example 214], the “mPTP Rat liver pIC50” value is reported as less than 4.52.

In order of rising “mPTP Rat liver pIC50” value:
1. O=C(NCC1(Cc2cc(F)cc(F)c2)CCC1)c1ccc(=O)[nH]n1 [Example 176]  4.8
2. O=C(NCC1(Cc2cccc(F)c2)CCC1)c1nnc[nH]1 [Example 171]  4.87
3. CSc1cccc(CC2(CNC(=O)c3nn(C)c(=O)[nH]3)CCC2)c1 [Example 182]  5.02
4. O=C(NCC1(Cc2ccc(F)cc2F)CCC1)c1nnc[nH]1 [Example 180]  5.14
5. COCc1nnc(C(=O)NCC2(Cc3ccc(F)cc3F)CCC2)[nH]1 [Example 206]  5.24
6. CCc1cccc(CC2(CNC(=O)c3nn(C)c(=O)[nH]3)CCC2)c1 [Example 162, N-((1-(3-ethylbenzyl)cyclobutyl)methyl)-1-methyl-5-oxo-4,5-dihydro-1H-1,2,4-triazole-3-carboxamide]  5.26
7. O=C(NC[C@H](Cc1c(F)cccc1F)C1CC1)c1nccc(=O)[nH]1 [Example 189]  5.26
8. O=C(NC[C@H](Cc1cc(F)ccc1F)C1CC1)c1ccc(=O)[nH]n1 [Example 155]  5.33
9. O=C(NC[C@H](Cc1cc(F)ccc1F)C1CC1)c1cncc(=O)[nH]1 [Example 158]  5.33
10. CC[C@H](CNC(=O)c1nccc(=O)[nH]1)Cc1ccc(F)cc1F [Example 163]  5.38
11. O=C(NC[C@H](Cc1c(F)cc(F)cc1F)C1CC1)c1nccc(=O)[nH]1 [Example 183, (R)—N-(2-cyclopropyl-3-(2,4,6-trifluorophenyl)propyl)-6-oxo-1,6-dihydropyrimidine-2-carboxamide]  5.4
12. CCC(CNC(=O)c1nn(C)c(=O)[nH]1)Cc1ccc2c(c1)CCO2 (centres unmarked) [Example 172]  5.41
13. CC(c1ccc(F)cc1F)[C@@H](CNC(=O)c1nccc(=O)[nH]1)C1CC1 (stereo partly drawn) [Example 188, N-[(2S)-2-Cyclopropyl-3-(2,4-difluorophenyl)butyl]-4-oxo-3H-pyrimidine-2-carboxamide]  5.42
14. O=C(NC[C@H](Cc1ccc(F)cc1F)C1CC1)c1cncc(=O)[nH]1 [Example 154]  5.54
15. Cn1nc(C(=O)NCC(Cc2c(F)cc(F)cc2Cl)C2CC2)[nH]c1=O (centres unmarked) [Example 220]  5.56
16. O=C(NCC1(Cc2ccc(F)c(F)c2)CCC1)c1noc(=O)[nH]1 [Example 202, N-((1-(3,4-difluorobenzyl)cyclobutyl)methyl)-5-oxo-4,5-dihydro-1,2,4-oxadiazole-3-carboxamide]  5.61
17. O=C(NCC1(Cc2ccc(F)cc2F)CCC1)c1cnn[nH]1 [Example 170]  5.65
18. Cc1cc(F)ccc1CC1(CNC(=O)c2cncc(=O)[nH]2)CCC1 [Example 166]  5.7
19. O=C(NC[C@H](Cc1ccc(F)cc1F)C1CC1)c1ncc(F)c(=O)[nH]1 [Example 192]  5.72
20. O=C(NC[C@H](Cc1ccc(F)c(F)c1)C1CC1)c1cncc(=O)[nH]1 [Example 151]  5.88
21. O=C(NCC1(Cc2ccc(F)cc2F)CCC1)c1nncc(=O)[nH]1 [Example 198, N-((1-(2,4-difluorobenzyl)cyclobutyl)methyl)-5-oxo-4,5-dihydro-1,2,4-triazine-3-carboxamide]  5.95
22. CC[C@H](CNC(=O)c1noc(=O)[nH]1)Cc1ccc(F)cc1F [Example 209]  5.96
23. O=C(NCC1(Cc2ccc(F)cc2F)CCC1)c1n[nH]c(=O)o1 [Example 211]  6.05
24. Cc1cc(F)ccc1CC1(CNC(=O)c2nccc(=O)[nH]2)CCC1 [Example 168, N-((1-(4-fluoro-2-methylbenzyl)cyclobutyl)methyl)-6-oxo-1,6-dihydropyrimidine-2-carboxamide]  6.07
25. O=C(NCC1(Cc2ccc(F)cc2F)CCOCC1)c1cc(=O)[nH]o1 [Example 184]  6.14
26. Cn1nc(C(=O)NC[C@H](Cc2c(F)cccc2F)C2CC2)[nH]c1=O [Example 212]  6.18
27. O=C(NCC1(Cc2ccc(F)cc2F)CCOCC1)c1nccc(=O)[nH]1 [Example 185]  6.34
28. O=C(NCC1(Cc2ccc(F)cc2F)CC(F)C1)c1nccc(=O)[nH]1 (centres unmarked) [Example 215]  6.34
29. Cn1nc(C(=O)NCC(Cc2ccc(F)cc2Cl)C2CC2)[nH]c1=O (centres unmarked) [Example 193, N-(3-(2-chloro-4-fluorophenyl)-2-cyclopropylpropyl)-1-methyl-5-oxo-4,5-dihydro-1H-1,2,4-triazole-3-carboxamide]  6.36
30. CC(CNC(=O)c1nccc(=O)[nH]1)(Cc1ccc(F)cc1F)C1CC1 (centres unmarked) [Example 187]  6.53
31. O=C(NC[C@H](Cc1ccc(F)cc1F)C1CC1)c1noc(=O)[nH]1 [Example 204]  6.53
32. CCC(CC)(CNC(=O)c1nn(C)c(=O)[nH]1)Cc1ccc(F)cc1F [Example 199]  6.55
33. CCC(CNC(=O)c1nn(C)c(=O)[nH]1)Cc1ccc(F)c(F)c1 (centres unmarked) [Example 164]  6.56
34. CC(NC(=O)c1nn(C)c(=O)[nH]1)[C@H](Cc1ccc(F)cc1F)C1CC1 (some centres unmarked) [Example 196]  6.56
35. O=C(NCC1(Cc2cc(F)c(F)cc2F)CCC1)c1cncc(=O)[nH]1 [Example 148]  6.58
36. O=C(NCC1(Cc2ccc(F)cc2F)CC12CC2)c1nccc(=O)[nH]1 (centres unmarked) [Example 186]  6.58
37. Cn1nc(C(=O)NCC(C)(Cc2ccc(F)cc2F)C2CC2)[nH]c1=O (centres unmarked) [Example 210, N-(2-cyclopropyl-3-(2,4-difluorophenyl)-2-methylpropyl)-1-methyl-5-oxo-4,5-dihydro-1H-1,2,4-triazole-3-carboxamide]  6.82

From US12491185B2, “Inhibitors of mPTP” (NRG Therapeutics Ltd, priority 2023, dated 2025)
